Results reported in publication PMC9090415, “Discovery of small molecule inhibitors of Plasmodium falciparum apicoplast DNA polymerase” (Journal of Enzyme Inhibition and Medicinal Chemistry, 2022).

Molecular target: P. falciparum apicoplast DNA polymerase (Pf-apPOL) (Plasmodium falciparum, UniProt Q8ILY1)
Experiment: Fluorescence-based high-throughput DNA polymerase assay (molecular beacon), primary screen and dose-response
Type: biochemical
Conditions: for DNA Pol: unit not given, 90 min, 10 µM; for % inhibition apPOL 180' 2.5 / % inhibition apPOL 180' 5 / % inhibition apPOL 180' 10 / % inhibition apPOL 180' 20 / % inhibition apPOL 180' 40 / % inhibition apPOL 180' 80: read at 180'
Outline: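 Single-point screening used 10 µM compound with 20 nM polymerase, 20 nM hairpin substrate and 6 µM dNTPs for 90 min at 25 °C. Confirmatory titrations (2.5–80 µM) followed fluorescence at three times, and IC50 was derived from a fit including a cooperativity term n.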

Chain of P. falciparum apicoplast DNA polymerase (Pf-apPOL) (Q8ILY1 entry or part of it): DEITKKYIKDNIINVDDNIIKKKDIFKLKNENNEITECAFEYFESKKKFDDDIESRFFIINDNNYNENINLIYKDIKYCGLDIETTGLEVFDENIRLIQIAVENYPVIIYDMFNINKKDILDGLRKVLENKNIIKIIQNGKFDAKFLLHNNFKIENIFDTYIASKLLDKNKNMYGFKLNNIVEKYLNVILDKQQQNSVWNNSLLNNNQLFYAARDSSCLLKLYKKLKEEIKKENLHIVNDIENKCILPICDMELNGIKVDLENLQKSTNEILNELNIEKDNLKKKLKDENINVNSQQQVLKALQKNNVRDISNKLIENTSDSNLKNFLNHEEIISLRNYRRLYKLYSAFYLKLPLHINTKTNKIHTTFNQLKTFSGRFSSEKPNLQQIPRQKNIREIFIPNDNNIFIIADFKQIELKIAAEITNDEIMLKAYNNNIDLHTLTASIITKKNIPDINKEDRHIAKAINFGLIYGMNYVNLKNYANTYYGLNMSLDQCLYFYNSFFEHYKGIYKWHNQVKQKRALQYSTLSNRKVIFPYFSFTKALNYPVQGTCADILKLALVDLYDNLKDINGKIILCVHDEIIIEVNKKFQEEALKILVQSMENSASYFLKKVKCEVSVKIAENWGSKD

COc1ccc(/C=C/c2cc(C(=O)O)c3ccccc3n2)cc1 [Molecule 5, COc1ccc(cc1)/C=C/c1nc2ccccc2c(c1)C(=O)O]
DNA Pol (186 hits, DNA Pol (screen value)): 61
DNA Pol ('DNA Pol' (screen value)): 61
% inhibition Apo pol 10' 2.5 (DRC-1, read at 10', concentration 2.5): 43.4862%
% inhibition Apo pol 10' 5 (DRC-1, read at 10', concentration 5): 53.3879%
% inhibition Apo pol 10' 10 (DRC-1, read at 10', concentration 10): 61.7052%
% inhibition Apo pol 10' 20 (DRC-1, read at 10', concentration 20): 65.8277%
% inhibition Apo pol 10' 40 (DRC-1, read at 10', concentration 40): 71.2771%
% inhibition Apo pol 10' 80 (DRC-1, read at 10', concentration 80): 72.4327%
% inhibition Apol 90' 2.5 (DRC-1, read at 90', concentration 2.5): 35.7188%
% inhibition Apol 90' 5 (DRC-1, read at 90', concentration 5): 44.8099%
% inhibition Apol 90' 10 (DRC-1, read at 90', concentration 10): 55.1819%
% inhibition Apol 90' 20 (DRC-1, read at 90', concentration 20): 60.94%
% inhibition Apol 90' 40 (DRC-1, read at 90', concentration 40): 68.5014%
% inhibition Apol 90' 80 (DRC-1, read at 90', concentration 80): 67.8921%
% inhibition apPOL 180' 2.5 (DRC-1, concentration 2.5): 28.4361%
% inhibition apPOL 180' 5 (DRC-1, concentration 5): 35.945%
% inhibition apPOL 180' 10 (DRC-1, concentration 10): 46.8104%
% inhibition apPOL 180' 20 (DRC-1, concentration 20): 54.1695%
% inhibition apPOL 180' 40 (DRC-1, concentration 40): 63.6204%
% inhibition apPOL 180' 80 (DRC-1, concentration 80): 63.471%
% inhibition Apo pol 5' (DRC-2, 5', concentration 20): 38%
% inhibition Apol 40' (DRC-2, concentration 2.5): 46%
% inhibition Apol 40' (DRC-2, concentration 5): 36%
% inhibition Apol 40' (DRC-2, concentration 20): 46%
% inhibition Apol 40' (DRC-2, concentration 80): 38%
% inhibition ApPOL 90' (DRC-2, concentration 2.5): 45%
% inhibition ApPOL 90' (DRC-2, concentration 5): 36%
% inhibition ApPOL 90' (DRC-2, concentration 20): 46%
% inhibition apPOL 180' (DRC-2, concentration 20): 38%
% inhibition apPOL 180' (DRC-2, concentration 80): 45%
% inhibition Apo pol 5' 2.5 (DRC-2, read at 5', concentration 2.5): 37%
% inhibition Apo pol 5' 5 (DRC-2, read at 5', concentration 5): 31%
% inhibition Apo pol 5' 10 (DRC-2, read at 5', concentration 10): 8.56%
% inhibition Apo pol 5' 20 (DRC-2, read at 5', concentration 20): 38%
% inhibition Apo pol 5' 40 (DRC-2, read at 5', concentration 40): 43%
% inhibition Apo pol 5' 80 (DRC-2, read at 5', concentration 80): 14%
% inhibition Apol 40' 2.5 (DRC-2, read at 40', concentration 2.5): 46%
% inhibition Apol 40' 5 (DRC-2, read at 40', concentration 5): 36%
% inhibition Apol 40' 10 (DRC-2, read at 40', concentration 10): -66%
% inhibition Apol 40' 20 (DRC-2, read at 40', concentration 20): 46%
% inhibition Apol 40' 40 (DRC-2, read at 40', concentration 40): 55%
% inhibition Apol 40' 80 (DRC-2, read at 40', concentration 80): 38%
% inhibition ApPOL 90' 2.5 (DRC-2, read at 90', concentration 2.5): 45%
% inhibition ApPOL 90' 5 (DRC-2, read at 90', concentration 5): 36%
% inhibition ApPOL 90' 10 (DRC-2, read at 90', concentration 10): -90%
% inhibition ApPOL 90' 20 (DRC-2, read at 90', concentration 20): 46%
% inhibition ApPOL 90' 40 (DRC-2, read at 90', concentration 40): 56%
% inhibition ApPOL 90' 80 (DRC-2, read at 90', concentration 80): 44%
% inhibition apPOL 180' 2.5 (DRC-2, concentration 2.5): 34%
% inhibition apPOL 180' 5 (DRC-2, concentration 5): 25%
% inhibition apPOL 180' 10 (DRC-2, concentration 10): -139%
% inhibition apPOL 180' 20 (DRC-2, concentration 20): 38%
% inhibition apPOL 180' 40 (DRC-2, concentration 40): 50%
% inhibition apPOL 180' 80 (DRC-2, concentration 80): 45%
